Assays:
Human MMP-3 = Human MMP-3 (Homo sapiens, UniProt P08254); test: MMP enzymatic activity, modified fluorescence assay (DNP-substrate); type: biochemical
Procedure: (§1) IC50 values are measured by an in vitro assay for MMP enzymatic activity. […] This assay is based on the determination of MMP enzymatic activity on a dinitrophenol substrate and fluorescence measurement of the substrate after cleaving by MMPs.
(§2) Human MMP-1, MMP-2, MMP-3, MMP-9 and MMP-14 are commercially available (e.g. Calbiochem). The pro-enzymes were activated with 1 mM APMA (incubation for 30 min at 37° C.) immediately before testing. Activated enzyme is diluted to 100 ng/ml in incubation buffer (50 mM Tris, 100 mM NaCl, 10 mM CaCl2, pH 7.6). The compounds were dissolved in 100% DMSO.
(§3) The test tube contains 970 μl incubation buffer, 10 μl inhibitor solution and 10 μl enzyme solution. The reaction was started by adding the 10 μl substrate solution.

Human MMP-1 = molecular target: T1, Human MMP-1 (Homo sapiens, UniProt P03956); test: as above; type: biochemical
T1 sequence (P03956 100-469): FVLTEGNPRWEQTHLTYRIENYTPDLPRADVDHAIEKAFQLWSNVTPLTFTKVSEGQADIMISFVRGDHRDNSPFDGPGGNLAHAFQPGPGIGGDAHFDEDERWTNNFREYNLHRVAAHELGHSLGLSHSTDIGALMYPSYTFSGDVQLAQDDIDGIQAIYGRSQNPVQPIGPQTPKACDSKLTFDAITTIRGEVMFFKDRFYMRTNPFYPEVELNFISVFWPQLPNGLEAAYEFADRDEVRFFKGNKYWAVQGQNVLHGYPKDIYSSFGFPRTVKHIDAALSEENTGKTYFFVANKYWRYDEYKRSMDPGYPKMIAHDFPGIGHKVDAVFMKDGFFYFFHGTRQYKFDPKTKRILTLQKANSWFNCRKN
Procedure: as §1, §2, §3

[1] = system: allergen-induced airway inflammation and bronchial hyperresponsiveness; test: Mouse model of asthma (OVA), inhalation, short exposure challenge; type: in vivo, mice; conditions: inhalation of 40 mg/ml solution in pure DMSO, short-term exposure, vs DMSO alone
Procedure: In order to study the modulation of airway inflammation by intraperitoneal injection of Compound I, mice were sensitized with 10 μg ovalbumin alumin-adsorbed (aluminject, perbio, Erembodegem, Belgium) injected intraperitonealy at days 0 and 7 and were subsequently exposed to OVA 1% or PBS aerosols for 30 minutes from day 21 to 24. Intraperitoneal injections were performed 30 min before OVA inhalations. The different injected formulations were: cremophor 10%-DMSO 10%-PBS 80%- Compound I30 mg/kg (suspension); cremophor 10%-DMSO 10%-PBS 80%- Compound I3.75 mg/kg (solution); HPβCD 200 mM Compound I 7.5 mg/kg (solution); HPβCD 200 mM. All results were compared to mice sensitized and exposed to PBS and OVA treated with PBS injected intraperitonealy. In order to study the modulation of airway inflammation by inhaled Compound I, mice were sensitized as described previously. Two protocols referred to as short exposure challenge and long-term exposure challenge were used. In the short exposure challenge, mice were exposed to aerosols of Compound I-complex at concentrations of 0.03 and 0.3 mg/ml of active compound in aqueous solution of from day 21 to 27 during 30 min in a Plexiglas exposure chamber (30×20×15 cm). Mice were exposed to OVA aerosols 30 minutes after the Compound I inhalation from day 23 to 27. In the so called long-term inhalation challenge, mice were exposed to aerosols of Compound Iat concentrations of 0.03 and 0.3 mg/ml complexed with HPβCD in an aqueous solution during 30 min five days odd weeks and to OVA aerosols 3 days odd weeks for 11 weeks. No inhalations were performed during even weeks.
The aerosol were produced by using an ultrasonic nebuliser SYSTAM (Systeme Assistance Medical, Le Ledat, France), the vibration frequency of which is 2.4 MHz with variable vibration intensity and ventilation levels. Vibration intensity was fixed in position 6 and the ventilation level was 25(ν1/2)1/min.
Twenty-four hours after the last allergen exposure, the bronchial hyper responsiveness was determined by measuring the Penh using a barometric plethysmograph as proposed by Hamelmann, E., et al., Am. J Respir. Crit. Care Med. 156 (1997) 766-775). The Penh was measured at baseline and 5 min after the inhalation of increasing doses (25, 50, 75 and 100 mM) of methacholine (Mch).
Immediately after the assessment of airway responsiveness, mice were sacrificed and 1 ml of PBS free of ionised calcium and magnesium but supplemented with 0.05 mM sodium EDTA was instilled 4 times via a tracheal cannula and recovered by gentle manual aspiration. The recovered bronchoalveolar lavage fluid (BAL) was centrifuged (1800 rpm for 10 min at 4° C.). […] A value from 0 to 3 per criteria was adjudged to each tissue section scored. […]

Chain of Human MMP-3 (P08254 100-477): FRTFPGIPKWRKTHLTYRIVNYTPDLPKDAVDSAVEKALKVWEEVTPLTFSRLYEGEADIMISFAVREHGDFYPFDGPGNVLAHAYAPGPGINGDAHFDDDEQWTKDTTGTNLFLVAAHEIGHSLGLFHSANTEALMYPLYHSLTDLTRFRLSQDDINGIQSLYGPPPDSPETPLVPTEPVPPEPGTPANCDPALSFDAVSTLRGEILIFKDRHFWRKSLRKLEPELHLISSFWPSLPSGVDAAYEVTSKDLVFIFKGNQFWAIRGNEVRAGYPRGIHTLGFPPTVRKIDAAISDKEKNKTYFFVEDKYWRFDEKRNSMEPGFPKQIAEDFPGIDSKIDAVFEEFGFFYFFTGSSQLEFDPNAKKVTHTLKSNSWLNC

O=C1NC(=O)C(c2ccc(-c3ccccc3)cc2)(N2CCN(c3ccc([N+](=O)[O-])cc3)CC2)C(=O)N1 [Compound I, 5-Biphenyl-4-yl-5-[4-(4-nitro-phenyl)-piperazin-1-yl]pyrimidine-2,4,6-trione]
IC50 (Human MMP-3): 3.5 µM | IC50 (Human MMP-1): 53 µM | BAL eosinophils ([1]; p<0.005): significant decrease | peribronchial inflammation scores ([1]; p<0.01): significant decrease | bronchial hyperresponsiveness ([1]; p<0.05): significant decrease
